These results are taken from ChEMBL document CHEMBL1129676, “1-substituted 4-aryl-5-pyridinylimidazoles: a new class of cytokine suppressive drugs with low 5-lipoxygenase and cyclooxygenase inhibitory potency” (J Med Chem, 1996).

Each structure is given as a SMILES string.

One test relates to Mus musculus. The experiment in a line: In vivo inhibition of LPS-induced TNF production in mice 50 mg/Kg. The format is functional.
The next test has as its target MAP kinase p38 (Homo sapiens, UniProt O15264+Q15759+Q16539+P53778). The test is described as follows: In vitro inhibitory concentration against radioligand [3H]SB-202190 binding to CSBP kinase in human monocytic cell line, THP-1.
Test [1] concerns the target T1, Polyunsaturated fatty acid 5-lipoxygenase (Rattus norvegicus, UniProt P12527).
T1 sequence (P12527 whole entry): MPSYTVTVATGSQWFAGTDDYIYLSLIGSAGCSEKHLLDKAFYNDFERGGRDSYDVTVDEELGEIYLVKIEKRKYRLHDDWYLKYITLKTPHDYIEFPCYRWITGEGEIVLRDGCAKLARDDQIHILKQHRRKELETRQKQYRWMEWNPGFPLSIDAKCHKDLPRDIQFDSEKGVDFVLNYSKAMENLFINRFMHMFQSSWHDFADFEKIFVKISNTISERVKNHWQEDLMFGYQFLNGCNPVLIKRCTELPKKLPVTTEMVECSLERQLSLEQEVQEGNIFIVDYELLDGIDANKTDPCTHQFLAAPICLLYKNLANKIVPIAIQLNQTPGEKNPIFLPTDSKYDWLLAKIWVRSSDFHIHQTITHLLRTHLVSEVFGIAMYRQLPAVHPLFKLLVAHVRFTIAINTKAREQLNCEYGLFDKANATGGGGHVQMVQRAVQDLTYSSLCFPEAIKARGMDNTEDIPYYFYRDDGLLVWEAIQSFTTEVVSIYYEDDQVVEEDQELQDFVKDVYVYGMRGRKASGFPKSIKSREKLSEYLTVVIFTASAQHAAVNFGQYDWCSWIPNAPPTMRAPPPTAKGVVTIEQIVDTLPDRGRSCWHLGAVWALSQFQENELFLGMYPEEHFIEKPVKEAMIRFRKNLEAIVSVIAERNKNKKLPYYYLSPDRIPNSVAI
The experiment in a line: Inhibitory concentration against 5-lipoxygenase in rat RBL-1 cells. Format: cell-based.

Test [2] has as its target T2, Prostaglandin G/H synthase 1 (Ovis aries, UniProt P05979).
T2 sequence (P05979 whole entry): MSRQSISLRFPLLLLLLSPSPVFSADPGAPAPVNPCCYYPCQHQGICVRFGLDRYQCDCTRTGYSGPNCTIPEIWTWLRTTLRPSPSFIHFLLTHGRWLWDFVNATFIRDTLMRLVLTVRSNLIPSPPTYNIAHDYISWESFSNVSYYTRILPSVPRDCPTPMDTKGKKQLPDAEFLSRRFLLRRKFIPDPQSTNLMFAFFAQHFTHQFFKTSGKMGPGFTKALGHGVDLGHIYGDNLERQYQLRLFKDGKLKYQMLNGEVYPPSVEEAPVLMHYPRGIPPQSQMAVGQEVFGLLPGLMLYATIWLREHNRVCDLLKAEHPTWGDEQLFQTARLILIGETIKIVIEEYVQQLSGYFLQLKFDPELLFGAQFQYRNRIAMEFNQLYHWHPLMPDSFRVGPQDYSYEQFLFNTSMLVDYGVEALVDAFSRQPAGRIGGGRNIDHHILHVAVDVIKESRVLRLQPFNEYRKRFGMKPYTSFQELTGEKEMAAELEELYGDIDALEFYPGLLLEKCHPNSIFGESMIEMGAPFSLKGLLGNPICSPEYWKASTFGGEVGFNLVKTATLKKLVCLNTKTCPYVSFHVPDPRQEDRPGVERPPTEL
The test is described as follows: Inhibitory concentration against Prostaglandin H2 synthase 1 (PGHS-1) from ram seminal vesicle.

In general, IC50 refers to the midpoint of a concentration-inhibition curve. A lower IC50 goes with greater potency.

`CN(CCCn1cnc(-c2ccc(F)cc2)c1-c1ccncc1)Cc1ccccc1`: the Change with Mus musculus is -28%. This compound also yielded a half-maximal inhibitory concentration (IC50) at MAP kinase p38 of 130 nM. For `CCN(CC)CCCn1cnc(-c2ccc(F)cc2)c1-c1ccncc1` the same measures were -21% and 270 nM. Regarding `FC(F)(F)c1ccc(-c2ncn(CCCN3CCOCC3)c2-c2ccncc2)cc1`, the 50% inhibitory concentration (IC50) on MAP kinase p38 stood at 2980 nM. Take `C[S+]([O-])c1ccc(-c2nc(-c3ccc(F)cc3)c(-c3ccncc3)[nH]2)cc1` (stereo not drawn) [SB-203580]: in the test on Mus musculus, the Change was -83%.

For `Clc1cccc(-c2ncn(CCCN3CCOCC3)c2-c2ccncc2)c1`, the Change in the test on Mus musculus was -49%. The IC50 on MAP kinase p38 turned out to be 210 nM.

In the case of `COC(=O)CCCn1cnc(-c2ccc(F)cc2)c1-c1ccncc1`, in the test on Mus musculus, the Change is -33%. The IC50 at MAP kinase p38 is 290 nM.

`CSc1cccc(-c2ncn(CCCN3CCOCC3)c2-c2ccncc2)c1`: the Change in the test with Mus musculus was -10%. This compound also registered a half-inhibitory concentration (IC50) at MAP kinase p38 of 290 nM. In turn, `NCCCn1cnc(-c2ccc(F)cc2)c1-c1ccncc1` registered a half-inhibitory concentration (IC50) at MAP kinase p38 of 150 nM. Still for that read-out and setting: with `C[S+]([O-])c1cccc(-c2ncn(CCCN3CCOCC3)c2-c2ccncc2)c1` (stereo not drawn) the figure was 4950 nM.

As to `O=C(O)CCCn1cnc(-c2ccc(F)cc2)c1-c1ccncc1`, the Change in the test on Mus musculus is recorded as -47%. At MAP kinase p38, the half-maximal inhibitory concentration (IC50) was found to be 3830 nM. As for `Fc1ccc(-c2ncn(CCCN3CCOCC3)c2-c2cccnc2)cc1`, the IC50 on MAP kinase p38 is 64700 nM. In other words, the double-digit micromolar range. Turning to `Fc1ccc(-c2ncn(CCCN3CCCCC3)c2-c2ccncc2)cc1`, the Change with Mus musculus is reported as -26%. This compound also showed an IC50 on MAP kinase p38 of 1170 nM. For `Nc1cc(-c2c(-c3ccc(F)cc3)ncn2CCCN2CCOCC2)ccn1`, in that order: -38% and 1180 nM. For `Fc1ccc(-c2ncn(CCCNCc3ccccc3)c2-c2ccncc2)cc1`, in that order: -43% and 70 nM. Regarding `Fc1ccc(-c2ncn(C3CC3)c2-c2ccncc2)cc1`, the IC50 in test [1] was found to be 60000 nM; in test [2] it was 16000 nM; at MAP kinase p38 it was 80 nM. In addition, the Change with Mus musculus is -79%. As for `CCOCCCn1cnc(-c2ccc(F)cc2)c1-c1ccncc1`, the Change in the test on Mus musculus was -29%. Also, the concentration for half-maximal inhibition (IC50) at MAP kinase p38 stood at 100 nM. For `CSc1cccc(-n2cnc(-c3ccc(F)cc3)c2-c2ccncc2)c1` the same measures were -23% and 120 nM.

For the compound `CC(C)(C)n1cnc(-c2ccc(F)cc2)c1-c1ccncc1`, the Change in the test on Mus musculus is -35%. This compound also yielded an IC50 at MAP kinase p38 of 4740 nM. In the case of `Fc1ccc(-c2nc[nH]c2-c2ccncc2)cc1`, the IC50 was over 100000 nM in test [1], over 100000 nM in test [2] and 210 nM at MAP kinase p38. Also, the Change in the test on Mus musculus is given as -82%. Turning to `Cc1cc(-c2[nH]c(-c3ccc([S+](C)[O-])cc3)nc2-c2cccc(F)c2)ccn1` (stereo not drawn), the Change in the test with Mus musculus is -64%. On MAP kinase p38, the concentration for half-maximal inhibition (IC50) came to 370 nM. For `CC(C)n1cnc(-c2ccc(F)cc2)c1-c1ccncc1` the same measures were -56% and 120 nM. For `CSc1ccc(-c2nc3n(c2-c2ccncc2)CCC3)cc1`, the 50% inhibitory concentration (IC50) came to 3000 nM in test [1] and 100000 nM in test [2]. Turning to `CSc1ccc(-n2cnc(-c3ccc(F)cc3)c2-c2ccncc2)cc1`, in the test on Mus musculus, the Change is given as -20%. For the same compound, the IC50 on MAP kinase p38 was 1470 nM.

`Fc1ccc(-c2ncn(CCCN3CCOCC3)c2-c2ccccn2)cc1`: the IC50 on MAP kinase p38 worked out at 6460 nM.

`CSc1ccc(-c2nc(-c3cccc(F)c3)c(-c3ccncc3)[nH]2)cc1` gave a half-inhibitory concentration (IC50) on MAP kinase p38 of 340 nM. As to `C[S+]([O-])c1cccc(-n2cnc(-c3ccc(F)cc3)c2-c2ccncc2)c1` (stereo not drawn), the Change in the test with Mus musculus is -20%. Further, on MAP kinase p38, the concentration for half-maximal inhibition (IC50) is 520 nM. For `Fc1ccc(-c2ncn(CCN3CCOCC3)c2-c2ccncc2)cc1`, in that order: -25% and 760 nM. For `O=S(=O)(CCCn1cnc(-c2ccc(F)cc2)c1-c1ccncc1)c1ccccc1` the same measures were -42% and 1810 nM. At MAP kinase p38, `Fc1ccc(-c2ncn(CCCN3CCOCC3)c2-c2ccnc(Cl)c2)cc1` came in with an IC50 of 1890 nM. On to `CSCCCn1cnc(-c2ccc(F)cc2)c1-c1ccncc1`, for which the Change with Mus musculus is -49%. Moreover, the IC50 on MAP kinase p38 stood at 190 nM. Turning to `CSc1ccccc1-n1cnc(-c2ccc(F)cc2)c1-c1ccncc1`, the Change in the test with Mus musculus turned out to be 29%. This compound also displayed a 50% inhibitory concentration (IC50) on MAP kinase p38 of 80 nM. For the compound `CS(=O)(=O)CCCn1cnc(-c2ccc(F)cc2)c1-c1ccncc1`, the concentration for half-maximal inhibition (IC50) at MAP kinase p38 is 510 nM. That is a sub-micromolar value. As to `Fc1ccc(-c2ncn(CCCOc3ccccc3)c2-c2ccncc2)cc1`, the Change in the test with Mus musculus was -14%. The concentration for half-maximal inhibition (IC50) at MAP kinase p38 turned out to be 70 nM. As for `[O-][S+](CCCn1cnc(-c2ccc(F)cc2)c1-c1ccncc1)c1ccccc1` (stereo not drawn), the IC50 at MAP kinase p38 came out at 630 nM. On the same count and under the same terms, with `C[S+]([O-])c1ccc(-n2cnc(-c3ccc(F)cc3)c2-c2ccncc2)cc1` (stereo not drawn) the figure was 750 nM.

In the case of `C[S+]([O-])c1ccccc1-n1cnc(-c2ccc(F)cc2)c1-c1ccncc1` (stereo not drawn), the Change in the test on Mus musculus came to 40%. The compound further had an IC50 on MAP kinase p38 of 710 nM. With `Fc1ccc(-c2nc3n(c2-c2ccncc2)CCS3)cc1`, the IC50 in test [1] amounted to 10000 nM; in test [2] it was 5400 nM. `Fc1ccc(-c2ncn(CCCN3CCOCC3)c2-c2ccncc2)cc1` [SB-210313]: the half-inhibitory concentration (IC50) in test [1] is over 100000 nM. The Change with Mus musculus is listed as -55%.

Take `Fc1ccc(-c2ncn(CCCCN3CCOCC3)c2-c2ccncc2)cc1`: in the test with Mus musculus, the Change is given as -40%. The compound further came in with an IC50 on MAP kinase p38 of 480 nM. For `C[S+]([O-])CCCn1cnc(-c2ccc(F)cc2)c1-c1ccncc1` (stereo not drawn), in that order: -43% and 1400 nM. `Clc1ccc(-c2ncn(CCCN3CCOCC3)c2-c2ccncc2)cc1Cl`: the IC50 is over 100000 nM in test [1], over 100000 nM in test [2] and 320 nM at MAP kinase p38. The Change with Mus musculus is recorded as -73%.

For the compound `Cc1cc(-c2c(-c3ccc(F)cc3)ncn2CCCN2CCOCC2)cc(C)n1`, the IC50 at MAP kinase p38 is 25000 nM. Regarding `Cc1cc(-c2c(-c3ccc(F)cc3)ncn2CCCN2CCOCC2)ccn1`, in the test with Mus musculus, the Change was -37%. Further, the IC50 on MAP kinase p38 was 3050 nM. `FC(F)(F)c1cccc(-c2ncn(CCCN3CCOCC3)c2-c2ccncc2)c1`: the IC50 on MAP kinase p38 turned out to be 460 nM. For `Fc1ccc(-c2ncn(CCCSc3ccccc3)c2-c2ccncc2)cc1`, the Change in the test with Mus musculus is reported as -42%. At MAP kinase p38, this compound returned an IC50 of 80 nM. For `Fc1ccc(-c2ncn(CCCN3CCOCC3)c2-c2ccnc3ccccc23)cc1`, in the test with Mus musculus, the Change is -19%. This compound also displayed a half-inhibitory concentration (IC50) on MAP kinase p38 of 9000 nM. For `Fc1ccc(-c2ncn(CCCN3CCCC3)c2-c2ccncc2)cc1` the same measures were -17% and 340 nM. With `FC(F)(F)c1cc(-c2ncn(CCCN3CCOCC3)c2-c2ccncc2)cc(C(F)(F)F)c1`, the half-maximal inhibitory concentration (IC50) on MAP kinase p38 came to 114000 nM.
